Measurements: patent publication US9719981B2, “RAC1 inhibitors for the treatment of alport glomerular disease” (Father Flanagan's Boys' Home, priority 2012, dated 2017)

Assays:
[1] = tested on: primary cultured mesangial cells; test: Transwell Migration Assay of primary mesangial cells with TAE226; type: cell-based, mouse; conditions: 0.5 μM TAE226; relative to untreated cells
Method: MES Migration (insert). Transwell cell migration assays were performed as described by Daniel et al. (Daniel et al., 2012, Lab Invest; 92(6): 812-26) with some modifications. 8 micron, 24-well plate control inserts (BD Bioscience, Bedford, Mass.) were coated overnight at 4° C. with 100 μl of 0.1% gelatin/PBS then washed 1× with PBS. MES cultures were incubated in 1% FCS overnight, then 0.05% BSA-containing media for at least 8 hours, washed 1× with PBS and carefully tryspinized to ensure a single cell suspension and limited “clumping” of cells. After serum-neutralization and subsequent centrifugation, ˜100,000 cells were resuspended in 1.5 mls of 0.05% BSA media containing activators/inhibitors. The wells of a 24-well plate were filled with 0.75 mls of 10% FCS-containing media plus activators/inhibitors (excluding 0.05% BSA control well). 0.5 ml of cell-suspension was loaded into the gelatin-coated insert and the insert placed in a well. Wells were visually inspected for bubbles beneath insert and equal distribution of cell-suspension. Cells were allowed to migrate overnight (˜18 hrs). […] Inserts were air dried and counted at 100× magnification. Five fields were counted on each insert including one center and four periphery areas. Data was expressed as relative to 10% FCS control well (set equal to one). […]

glomerular injury = conditions: lipopolysaccharide or anti-GBM antibody administration; cited from earlier work
FAK [2] = test: pFAK397 western blot in cultured podocytes -/+ TAE226; type: cell-based, mouse; conditions: 20 μM TAE226, podocytes on placental laminin
Method: Basal Lamina and −/+ TAE226 pFAK^397 Western Blots. 10 day differentiated GEC's were cultured in 0.5% FCS for 2 days and plated onto tissue culture dishes previously coated with 50 μg/ml Collagen Type 1 Rat Tail (BD Biosciences) and 2 μg/cm^2 Placental Laminin (Sigma) in 0.1% BSA containing media. For Basal Lamina experiment, additional dishes were coated with Collagen Type 1 and 1.25 μg/cm^2 EHS Laminin (BD Biosciences) or […] Merosin (Chemicon, Temecula Calif.). For −/+ TAE266 experiment, 20 μM TAE226 was included in the media. Protein was collected 15 hours later in M-PER (Thermo Scientific) as above and Western Blot run as described below.
(§1) Immunoblotting. Ten to fifteen micrograms, of cellular protein, was resolved in a 10% SDS-PAGE and then electrotransfered to PVDF membrane. The membranes were cut in half and the upper half (250 kDa to 75 kDa) used for pFAK/tFAK immunoblotting while the bottom half used for β-actin immunoblotting (loading control). Conditions for pFAK detection: the membrane was blocked in milk blocking solution (5% milk containing 0.2% Tween-20 in PBS) for 1 hour at room temperature with constant shaking and incubated overnight at 4° C. with anti-pFAK 1:1,000 in BSA blocking solution (1% BSA containing 0.2% Tween-20 in PBS). […]

FAK [3] = test: pFAK397 western blot in primary mesangial cells with TAE226; type: cell-based, mouse; conditions: 0.5 and 1.0 μM TAE226, five hours
Method: Primary Mesangial Cells were derived and characterized as previously described (Cosgrove et al., 2008, Am J Pathol; 172: 761-773). Three independent Transwell Migration Assays were performed using 0.5 μM TAE226 as previously described. For pFAK Western Blot^397, cells were maintained on 1% FCS-containing media for two days, overnight in 0.1% BSA (Fraction V, Roche Diagnostics, Mannheim, Germany) and TAE226 added to 0.5 and 1.0 μM. After five hours protein was collected in M-PER™ (Thermo Scientific, Rockford, Ill.) containing Protease Inhibitor Cocktail P8340 at 1:100 (Sigma, St. Louis, Mo.), 5 mM Sodium Fluoride (Sigma), and 2 mM Sodium Orthovanadate (Sigma) and Western Blots run as described below.
as §1

SMILES: CNC(=O)c1ccccc1Nc1nc(Nc2ccc(N3CCOCC3)cc2OC)ncc1Cl [TAE226]
- Cell migratory potential of mesangial cells [1]: significantly reduced
- Protection against glomerular injury (glomerular injury): protect against glomerular injury
- Activation state of FAK (pFAK397) in cultured podocytes (FAK [2]): reduced
- pFAK activation in mesangial cells (FAK [3]): blocked pFAK activation in a dose-dependent manner
